Consider one compound from US9605015B2, “Polyene compound, method for preparing the same, and antifungal drug comprising novel polyene compound as active ingredient” (INHA-INDUSTRY PARTNERSHIP INSTITUTE, priority 2011, dated 2017).

Values after ≈ are worked out from the molar mass of the structure shown.

In data set [1] the test system is erythrocytes in defibrinated horse blood. As to the kind of experiment: In vitro measurement of hemolytic activity. It counts as cell-based. To be noted: 37° C., 30 min. The method, then:
The hemolytic assay for the polyene macrolides was performed by monitoring the ability of the macrolides to cause lysis of erythrocytes in defibrinated horse blood (Gene. 111:61-68, 1992). Samples (0.1 ml) with different polyene macrolide concentrations (10 to 500 μg/ml in DMSO) were prepared from stock solutions of the purified polyenes (5 mg/ml in DMSO). The diluted samples were mixed with 0.9 ml horse blood-phosphate-buffered saline (PBS), which consisted of PBS buffer containing 2.5% defibrinated horse blood (KisanBiotech, Korea), and incubated in a water bath at 37° C. Samples were collected at 30 min, centrifuged at 5,000 rpm for 5 min, and the OD540 was measured. One hundred percent hemolysis was defined as the OD540 value obtained from a suspension of 2.5% horse blood in distilled water, and 0.9 ml horse blood-PBS with the addition of 0.1 ml DMSO was used as a blank. Each experiment was performed in triplicate, and samples containing nystatin were used as standards.

The subject of data set [2] is Candida albicans ATCC 10231. As to the kind of experiment: Antifungal activity analysis (growth inhibition in microtiter plates). To be noted: Table 5. It counts as cell-based. The method, then: The test organism used for the polyene macrolide bioactivity assays was Candida albicans ATCC 10231, which was grown in 120 μl of YM medium without NaCl (with an inoculum of 1,000 CFU per well) and 30 μl of diluted polyene macrolide samples. The antibiotics were diluted in methanol in series to ensure that concentrations resulting in no inhibition to complete inhibition of the growth of the test organism were used. The test organism cultures with diluted antibiotics were then incubated in 96-well microtiter plates at 30° C. without shaking. After 12, 14, and 16 h, growth was measured based on the optical density at 492 nm using a TECAN Infinite F50 microtiter plate reader. The optical density was plotted against the antibiotic concentration, and the MIC at which 50% of isolates are inhibited (MIC50) was estimated from the regression curve at 50% growth inhibition.

Data set [3] is described as follows: Solubility measurement in aqueous Tris-HCl buffer by UV spectrophotometry. In kind it is physicochemical. To be noted: aqueous 10 mmol Tris-HCl buffer (pH 7.0). From the text:
The polyene region of nystatin is extremely non-polar, which is presumed to promote hydrophobic interactions with sterols within the fungal cell membrane, and orients the polyol component of the molecule toward the internal aqueous channel. However, this low polarity also leads to significant difficulties in administration during human therapy. To investigate the effect of the additional N-acetyl-glucosamine moiety, the present inventors tested the solubility of the purified NPP as well as the nystatin A1 as a reference in an aqueous buffer solution of 10 mmol Tris-HCl (pH 7.0) using spectrophotometric methods.
Particularly, stock solutions of nystatin A1 (Sigma, N6261) standard (1.2 mg/ml) and the purified NPP (12 mg/ml) were prepared in methanol. A 100 μl portion of each stock was freeze-dried under vacuum for 24 h. Either 50 μl (nystatin A1) or 2 μl (NPP) of aqueous 10 mmol Tris-HCl buffer (pH 7.0) was added to the dry polyenes, and the solution was saturated by extensive (>15 min) vortexing. After centrifugation, polyene concentrations in the solution were determined by measuring UV absorbance spectra on SHIMADZU UV-1601 UV/Vis spectrophotometer after appropriate dilution. Specifically, the characteristic tetraene UV peak at 306 nm was used for quantification with experimentally determined extinction coefficients (J. Med. Chem. 49:2431-2439, 2006).

As usually defined, the HC50 is the concentration that lyses half of the red blood cells. Higher therefore signals less damage to red cells. A word on the solubility: it is how much of the substance goes into solution per volume.

As for `C[C@@H]1[C@H](O)[C@@H](C)/C=C/C=C/CC/C=C/C=C/C=C/C=C/C(O[C@H]2O[C@H](C)[C@@H](O)[C@H](N)[C@@H]2O)CC2O[C@](O)(CC(O)C(O)CCC(O)CC(O)CC(O)CC(=O)O[C@H]1C)CC(O)C2C(=O)O` (some centres unmarked) [nystatin, nystatin A1], the HC50 in data set [1] (2.5% defibrinated horse blood in PBS) amounted to 33 µg/mL. Further, the “Hemolytic activity (HC50, μg/ml)” value in data set [1] (Table 5, horse blood) stood at 33 ± 0.54 µg/mL. The “Antifungal activity (IC50, μg/ml)” value in data set [2] stood at 0.43 ± 0.02 µg/mL. Besides, the results for the “solubility” value in data set [3] (Table 5) and in data set [3] were 110 ± 30 µg/mL (≈ 119 µM) and 110 µg/mL (≈ 119 µM), respectively.
